# Assay results: PMC13276840, “Deacetylation of β‑Mannans by Two Complementary Carbohydrate Esterases from the Human Gut Microbe Bacteroides cellulosilyticus” (Biochemistry, 2026)
# Key:
# [1] = biological target: T1, BcCE7 (Bacteroides cellulosilyticus, UniProt E2NDM1); assay: transacetylation, MALDI-ToF MS; type: biochemical; details: acyl acceptor with vinyl acetate donor, […] enzyme, […] sodium phosphate pH […] °C
# T1 construct: gene BACCELL_02381; N-terminal signal peptide removed, His tag (removal not mentioned), pET28a(+), synthetic gene, E. coli BL21 STAR
# T1 sequence (E2NDM1 7-414 limits assumed): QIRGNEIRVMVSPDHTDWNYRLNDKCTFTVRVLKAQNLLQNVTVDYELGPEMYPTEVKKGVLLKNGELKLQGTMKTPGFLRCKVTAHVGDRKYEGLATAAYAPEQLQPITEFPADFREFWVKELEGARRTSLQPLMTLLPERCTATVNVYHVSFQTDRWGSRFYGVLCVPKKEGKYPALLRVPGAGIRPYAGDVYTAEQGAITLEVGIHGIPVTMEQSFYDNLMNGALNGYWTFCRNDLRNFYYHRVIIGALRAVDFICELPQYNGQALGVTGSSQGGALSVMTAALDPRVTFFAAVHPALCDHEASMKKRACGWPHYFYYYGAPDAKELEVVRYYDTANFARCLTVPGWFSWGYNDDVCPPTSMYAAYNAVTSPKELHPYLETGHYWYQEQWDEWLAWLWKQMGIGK
# [2] = biological target: T2, BcCE25 (Bacteroides cellulosilyticus, UniProt E2NCW7); assay: transacetylation, MALDI-ToF MS and NMR; type: biochemical; details: acyl acceptor with vinyl acetate donor, 200 nM enzyme, 10 mM sodium phosphate pH 5.9, 25 °C
# T2 construct: gene BACCELL_02125; N-terminal signal peptide removed, His tag (removal not mentioned), pET30a(+), synthetic gene, E. coli BL21 STAR
# T2 sequence (E2NCW7 20-263): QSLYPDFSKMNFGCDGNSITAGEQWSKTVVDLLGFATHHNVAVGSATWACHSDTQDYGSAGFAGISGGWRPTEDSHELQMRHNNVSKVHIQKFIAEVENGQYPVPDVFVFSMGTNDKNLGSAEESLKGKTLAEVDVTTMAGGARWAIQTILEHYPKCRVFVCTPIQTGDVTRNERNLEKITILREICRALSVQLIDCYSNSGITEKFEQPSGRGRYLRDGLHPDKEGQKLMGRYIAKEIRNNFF
smiles,measurement,setting,value
OC[C@H]1O[C@@H](O[C@H]2[C@H](O)[C@H](O)[C@H](O[C@H]3[C@H](O)[C@H](O)[C@H](O[C@H]4[C@H](O)[C@H](O)C(O)O[C@@H]4CO)O[C@@H]3CO)O[C@@H]2CO)[C@@H](O)[C@@H](O)[C@@H]1O (some centres unmarked) [mannotetraose],"transacetylation, MALDI-ToF MS",[1],"On mannotetraose, BcCE7 transferred mainly one acetyl group"
same,"transacetylation, MALDI-ToF MS and NMR",[2],BcCE25 transferred up to three acetylations
